Assay results: patent US9365584B2, “Thieno [2,3-B] pyridinedione activators of AMPK and therapeutic uses thereof” (Poxel, priority 2009, dated 2016)

system: AMPK; test: AMPK enzyme activity assay (Delfia technology, AMARA peptide substrate); format: biochemical; details: compound at 30 μM vs AMP at 200 μM
Summary of the method: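 Value is the ratio of compound (30 μM) to AMP (200 μM) response, each as % of basal control. Phosphorylation of the AMARA peptide after AMPK addition was read by Delfia with an anti-phosphoserine antibody.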

Activity: Ratio between the % of control (basal activity) of compound of formula (1) at 30 μM and the % of control (basal activity) of AMP (natural substrate) at 200 μM | Compound
C (C≧75%) | Cc1ccc(-c2c(Cl)sc3c2C(=O)C(F)(c2cccnc2)C(=O)N3)cc1C (stereo not drawn) [No 187, 2-chloro-3-(3,4-dimethylphenyl)-5-fluoro-5-(3-pyridyl)-7H-thieno[2,3-b]pyridine-4,6-dione]
A (0%<A<50%) | O=C1Nc2scc(-c3ccc(Br)cc3)c2C(=O)C1(F)c1ccccn1 (stereo not drawn) [No 188, 3-(4-bromophenyl)-5-fluoro-5-(2-pyridyl)-7H-thieno[2,3-b]pyridine-4,6-dione]
A (0%<A<50%) | O=C1Nc2scc(-c3ccc(F)cc3)c2C(=O)C1(F)c1ccccc1 (stereo not drawn) [No 189, 5-fluoro-3-(4-fluorophenyl)-5-phenyl-7H-thieno[2,3-b]pyridine-4,6-dione]
B (50%≦B<75%) | O=C1Nc2scc(-c3cccc(F)c3)c2C(=O)C1(F)c1ccccc1 (stereo not drawn) [No 190, 5-fluoro-3-(3-fluorophenyl)-5-phenyl-7H-thieno[2,3-b]pyridine-4,6-dione]
C (C≧75%) | Cc1ccc(-c2c(Cl)sc3c2C(=O)C(F)(c2ccccc2)C(=O)N3)c(O)c1F (stereo not drawn) [No 191, 2-chloro-5-fluoro-3-(3-fluoro-2-hydroxy-4-methyl-phenyl)-5-phenyl-7H-thieno[2,3-b]pyridine-4,6-dione]
C (C≧75%) | Cc1ccc(-c2c(C)sc3c2C(=O)C(F)(c2ccccc2)C(=O)N3)c(O)c1F (stereo not drawn) [No 192, 5-fluoro-3-(3-fluoro-2-hydroxy-4-methyl-phenyl)-2-methyl-5-phenyl-7H-thieno[2,3-b]pyridine-4,6-dione]
A (0%<A<50%) | O=C1Nc2scc(-c3cnccn3)c2C(=O)C1(F)c1ccccc1 (stereo not drawn) [No 193, 5-fluoro-5-phenyl-3-pyrazin-2-yl-7H-thieno[2,3-b]pyridine-4,6-dione]
C (C≧75%) | O=C1Nc2scc(-c3ccc(O)c(F)c3)c2C(=O)C1(F)c1ccccc1 (stereo not drawn) [No 194, 5-fluoro-3-(3-fluoro-4-hydroxy-phenyl)-5-phenyl-7H-thieno[2,3-b]pyridine-4,6-dione]
C (C≧75%) | COc1ccc(-c2c(F)sc3c2C(=O)C(F)(c2ccccc2)C(=O)N3)cc1F (stereo not drawn) [No 195, 2,5-difluoro-3-(3-fluoro-4-methoxy-phenyl)-5-phenyl-7H-thieno[2,3-b]pyridine-4,6-dione]
A (0%<A<50%) | O=C(O)c1cccc(-c2csc3c2C(=O)C(F)(c2ccccc2)C(=O)N3)c1 (stereo not drawn) [No 196, 3-(5-fluoro-4,6-dioxo-5-phenyl-7H-thieno[2,3-b]pyridin-3-yl)benzoic acid]
A (0%<A<50%) | O=C(O)c1cccc(-c2c(F)sc3c2C(=O)C(F)(c2ccccc2)C(=O)N3)c1 (stereo not drawn) [No 197, 3-(2,5-difluoro-4,6-dioxo-5-phenyl-7H-thieno[2,3-b]pyridin-3-yl)benzoic acid]
A (0%<A<50%) | O=C(O)c1ccc(-c2csc3c2C(=O)C(F)(c2ccccc2)C(=O)N3)cc1 (stereo not drawn) [No 198, 4-(5-fluoro-4,6-dioxo-5-phenyl-7H-thieno[2,3-b]pyridin-3-yl)benzoic acid]
B (50%≦B<75%) | COc1ccc(-c2csc3c2C(=O)C(F)(c2ccc(F)cc2)C(=O)N3)cc1 (stereo not drawn) [No 199, 5-fluoro-5-(4-fluorophenyl)-3-(4-methoxyphenyl)-7H-thieno[2,3-b]pyridine-4,6-dione]
B (50%≦B<75%) | COc1ccc(-c2c(F)sc3c2C(=O)C(F)(c2ccc(F)cc2)C(=O)N3)cc1 (stereo not drawn) [No 200, 2,5-difluoro-5-(4-fluorophenyl)-3-(4-methoxyphenyl)-7H-thieno[2,3-b]pyridine-4,6-dione]
B (50%≦B<75%) | COc1ccc(-c2csc3c2C(=O)C(F)(c2ccccc2)C(=O)N3)cc1 (stereo not drawn) [No 201, 5-fluoro-3-(4-methoxyphenyl)-5-phenyl-7H-thieno[2,3-b]pyridine-4,6-dione]
B (50%≦B<75%) | COc1ccc(-c2c(F)sc3c2C(=O)C(F)(c2ccccc2)C(=O)N3)cc1 (stereo not drawn) [No 202, 2,5-difluoro-3-(4-methoxyphenyl)-5-phenyl-7H-thieno[2,3-b]pyridine-4,6-dione]
C (C≧75%) | O=C1Nc2scc(-c3ccc(O)cc3)c2C(=O)C1(F)c1ccccc1 (stereo not drawn) [No 203, 5-fluoro-3-(4-hydroxyphenyl)-5-phenyl-7H-thieno[2,3-b]pyridine-4,6-dione]
C (C≧75%) | O=C1Nc2scc(-c3cccc(O)c3)c2C(=O)C1(F)c1ccccc1 (stereo not drawn) [No 204, 5-fluoro-3-(3-hydroxyphenyl)-5-phenyl-7H-thieno[2,3-b]pyridine-4,6-dione]
B (50%≦B<75%) | COc1cccc(-c2csc3c2C(=O)C(F)(c2ccccc2)C(=O)N3)c1 (stereo not drawn) [No 205, 5-fluoro-3-(3-methoxyphenyl)-5-phenyl-7H-thieno[2,3-b]pyridine-4,6-dione]
C (C≧75%) | COc1cccc(-c2c(F)sc3c2C(=O)C(F)(c2ccccc2)C(=O)N3)c1 (stereo not drawn) [No 206, 2,5-difluoro-3-(3-methoxyphenyl)-5-phenyl-7H-thieno[2,3-b]pyridine-4,6-dione]
A (0%<A<50%) | COc1ccccc1C1(F)C(=O)Nc2scc(-c3ccccc3)c2C1=O (stereo not drawn) [No 207, 5-fluoro-5-(2-methoxyphenyl)-3-phenyl-7H-thieno[2,3-b]pyridine-4,6-dione]
A (0%<A<50%) | O=C1Nc2scc(-c3ccncc3)c2C(=O)C1(F)c1ccccc1 (stereo not drawn) [No 208, 5-fluoro-5-phenyl-3-(4-pyridyl)-7H-thieno[2,3-b]pyridine-4,6-dione]
C (C≧75%) | Cc1cccc(C2(F)C(=O)Nc3sc(Cl)c(-c4cccc(F)c4)c3C2=O)c1 (stereo not drawn) [No 210, 2-chloro-5-fluoro-3-(3-fluorophenyl)-5-(m-tolyl)-7H-thieno[2,3-b]pyridine-4,6-dione]
C (C≧75%) | N#Cc1cccc(C2(F)C(=O)Nc3sc(Cl)c(-c4cccc(F)c4)c3C2=O)c1 (stereo not drawn) [No 211, 3-[2-chloro-5-fluoro-3-(3-fluorophenyl)-4,6-dioxo-7H-thieno[2,3-b]pyridin-5-yl]benzonitrile]
